≈ marks a conversion by molar mass, not a printed value. Entries after “also recorded” stand apart in the source; their conditions may differ. Structures can show the parent of a compound that is named as a salt. Where two headings read alike, the source gives them in different places.
What was measured:
[1] = Gravimetric vapour sorption (GVS) isotherm; format: physicochemical; conditions: for hygroscopicity by GVS / GVS behaviour (dehydration, crystallisation, transformation): 25° C.; for hygroscopicity by GVS: subjected to humidity (various RH levels); for change in form / XRPD pattern post GVS analysis: XRPD after the isotherm; for GVS mass / total weight change: between 0-90% RH; for GVS behaviour (dehydration, crystallisation, transformation): RH as stated in the value; for water exchanged (GVS): between 0 and 90% RH
Description: Sorption isotherms were obtained using a SMS DVS Intrinsic moisture sorption analyser, controlled by DVS Intrinsic Control software v1.0.0.30. The sample temperature was maintained at 25° C. by the instrument controls. The humidity was controlled by mixing streams of dry and wet nitrogen, with a total flow rate of 200 ml/min The relative humidity was measured by a calibrated Rotronic probe (dynamic range of 1.0-100% RH), located near the sample. The weight change, (mass relaxation) of the sample as a function of % RH was constantly monitored by the microbalance (accuracy ±0.005 mg).
Typically 5-20 mg of sample was placed in a tared mesh stainless steel basket under ambient conditions. The sample was loaded and unloaded at 40% RH and 25° C. (typical room conditions). A moisture sorption isotherm was performed as outlined below (2 scans giving 1 complete cycle). The standard isotherm was performed at 25° C. at 10% RH intervals over a 0-90% RH range. Data analysis was undertaken in Microsoft Excel using DVS Analysis Suite v6.0.
The sample was recovered after completion of the isotherm and re-analyzed by XRPD.

[2] = Storage at elevated temperature/humidity, form checked by XRPD; format: physicochemical; conditions: for stability on storage: duration not given; for stability to moisture / humidity: exposure to humidity
[3] = Plasma pharmacokinetics in patients, oral once daily dosing; conditions: human, in vivo
Description: (§1) Patients aged ≥18 yrs with advanced solid tumors/lymphoma whose disease failed standard therapies received oral Compound 1 citrate (Form 1) daily (QD, 60-120 mg) in 28 day cycles. To determine the maximum tolerated dose, dose escalation proceeded via modified titration design based on dose limiting toxicity or any drug-related grade ≥2 adverse event (AE) during cycle 1. Blood samples for plasma pharmacokinetic assessments were collected pre-dose and post-dose on day 1 and day 15 of cycle 1. Response assessments per RECIST for solid tumors and per IWG criteria for lymphoma were performed between day 22 and day 29 (pre-dose) of cycle 2, 4 and 6, and every 3 cycles thereafter.

[4] = Safety and dose limiting toxicity in the dose escalation study in patients; format: in vivo, human
Description: as §1

[5] = test system: advanced solid tumors/lymphoma; assay: Response assessment (RECIST / IWG criteria) in patients; format: in vivo, human
Description: as §1

[6] = Solubility of solid forms; format: physicochemical
[7] = DLBCL, 60 mg QD, after 2 cycles

## Cn1cc(-c2nc(N[C@@H]3CCCC[C@@H]3N)c(F)c3c2C(=O)NC3)cn1 [Form 1]
[1]
  hygroscopicity by GVS: not hygroscopic
  change in form / XRPD pattern post GVS analysis: No change in form was observed
  GVS mass / total weight change: less than 0.3%
[1]; RH range not printed at the place
  GVS variation: less than 0.3 % w/w
[2]; 25° C./97% RH for 1 week
  change in form after storage: No change in form was observed
[2]; 40° C./75% RH for 1 week
  change in form after storage: No change in form was observed
[3]; 15 days
  mean accumulation: 2.7 fold
[3]; po, 120 mg
  coefficient of variation for dl 5 AUCtau (variability in steady-state exposures): 47%
[3]; plasma, 11 patients at 60 and 120 mg oral QD, read-out: median Tmax
  Tmax: 2 h
[4]; 60 mg QD
  patients died on study (deaths not related to study drug): 3
[4]; 120 mg QD
  patients died on study (deaths not related to study drug): 1 patient
[4]; human, in vivo
  patients discontinued due to adverse events: 3 patients
[4]; overall, 15 patients
  patients died on study (deaths not related to study drug): 4 patients
[5]; 60 mg QD, after 2 cycles, 5 response-evaluable patients (4 DLBCL)
  DLBCL patients showing signs of response: 2 patients
[5]; [7]
  patients with partial response: 1
  tumor reduction in 1 patient: 25%
[5]; DLBCL, 80 mg, after 1 cycle, post data cut-off
  patients achieving partial response: 1 patient

## Cn1cc(-c2nc(N[C@@H]3CCCC[C@@H]3N)c(F)c3c2C(=O)NC3)cn1 [Compound 1 free base, 6-((1R,2S)-2-aminocyclohexylamino)-7-fluoro-4-(1-methyl-1H-pyrazol-4-yl)-1H-pyrrolo[3,4-c]pyridine-3(2H)-one]
[1]
  GVS behaviour (dehydration, crystallisation, transformation): the methanol solvate desolvated, however, the anhydrous form was found to be stable
[2]; 40° C./75% RH
  stability on storage: the methanol solvate desolvated, however, the anhydrous form was found to be stable

## Cn1cc(-c2nc(N[C@@H]3CCCC[C@@H]3N)c(F)c3c2C(=O)NC3)cn1 [Form 5]
[1]
  hygroscopicity by GVS: not hygroscopic
  change in form / XRPD pattern post GVS analysis: did not change form
[2]; 40° C./97% RH for 10 days
  change in form during storage: did not change form
[2]
  stability to moisture / humidity: stable to moisture
[6]; medium not given, read-out: solubility
  solubility: 11000 µg/mL (≈ 31900 µM)

## Cn1cc(-c2nc(N[C@@H]3CCCC[C@@H]3N)c(F)c3c2C(=O)NC3)cn1 [Form 14]
[1]
  change in form / XRPD pattern post GVS analysis: no change in the XRPD pattern was noted
  GVS mass / total weight change: 1.5%
  water exchanged (GVS): 0.25 eq.
[2]; 25° C./97% RH
  stability on storage: stable
[2]; 40° C./75% RH
  stability on storage: stable

## Cn1cc(-c2nc(N[C@@H]3CCCC[C@@H]3N)c(F)c3c2C(=O)NC3)cn1 [Form 17]
[1]
  change in form / XRPD pattern post GVS analysis: no change in the XRPD pattern was noted
  water exchanged (GVS): 0.3 eq.
[2]; 25° C./97% RH
  stability on storage: stable
[2]; 40° C./75% RH
  stability on storage: stable
[6]; water, pH 9.33, pH 9.33, read-out: aqueous solubility
  solubility: 180 µg/mL (≈ 523 µM)

## Cn1cc(-c2nc(N[C@@H]3CCCC[C@@H]3N)c(F)c3c2C(=O)NC3)cn1 [Form 16]
[1]
  GVS behaviour (dehydration, crystallisation, transformation): dehydration below 30% RH; also recorded: stable at and above 30% RH at 25 °C and desolvated below 30% RH
[2]; 25° C./97% RH
  stability on storage: No changes in the XRPD pattern were observed
[2]; 40° C./75% RH
  stability on storage: No changes in the XRPD pattern were observed
[6]; water, pH 9.27, pH 9.27, read-out: aqueous solubility
  solubility: 130 µg/mL (≈ 377 µM)

## Cn1cc(-c2nc(N[C@@H]3CCCC[C@@H]3N)c(F)c3c2C(=O)NC3)cn1 [Form 7]
[1]; RH range not given
  GVS water uptake: 10.5%
[2]
  stability to moisture / humidity: unstable to humidity and converted back to a hydrated form (Form 9)

## Cn1cc(-c2nc(N[C@@H]3CCCC[C@@H]3N)c(F)c3c2C(=O)NC3)cn1 [Form 3, 6-(((1R,2S)-2-aminocyclohexyl)amino)-7-fluoro-4-(1-methyl-1H-pyrazol-4-yl)-1H-pyrrolo[3,4-c]pyridin-3(2H)-one hydrochloride dihydrate]
[1]; hydrochloride dihydrate
  GVS behaviour (dehydration, crystallisation, transformation): subject to dehydration below 20% RH
  change in form / XRPD pattern post GVS analysis: No change in form was observed
[2]; 25° C./97% RH for 1 week
  change in form after storage: No change in form was observed
[2]; 40° C./75% RH for 1 week
  change in form after storage: No change in form was observed

## Cn1cc(-c2nc(N[C@@H]3CCCC[C@@H]3N)c(F)c3c2C(=O)NC3)cn1 [Form 8]
[1]
  GVS behaviour (dehydration, crystallisation, transformation): minimal weight variation between 10 and 90% RH

## Cn1cc(-c2nc(N[C@@H]3CCCC[C@@H]3N)c(F)c3c2C(=O)NC3)cn1 [Form 15]
[1]
  change in form / XRPD pattern post GVS analysis: no change in the XRPD pattern was noted
  GVS mass / total weight change: 2.0%
  water exchanged (GVS): 0.4 eq.
[2]; 25° C./97% RH
  stability on storage: stable
[2]; 40° C./75% RH
  stability on storage: stable
[6]; pH 9.41
  aqueous solubility: 710 µg/mL (≈ 2060 µM)

## Cn1cc(-c2nc(N[C@@H]3CCCC[C@@H]3N)c(F)c3c2C(=O)NC3)cn1 [Form 13]
[1]
  hygroscopicity by GVS: not hygroscopic
  change in form / XRPD pattern post GVS analysis: no transformation to hydrates was observed
  GVS mass / total weight change: less than 0.6%
[2]; 25° C./97% RH
  stability on storage: stable
[2]; 40° C./75% RH
  stability on storage: stable
[6]; water, pH 9.05, pH 9.05, read-out: aqueous solubility
  solubility: 190 µg/mL (≈ 552 µM)

## Cn1cc(-c2nc(N[C@@H]3CCCC[C@@H]3N)c(F)c3c2C(=O)NC3)cn1 [Form 2]
[1]
  GVS behaviour (dehydration, crystallisation, transformation): adsorbs moisture in the range of 40-80% relative humidity (RH) and undergoes a crystallization event above 80% RH; also recorded: undergoes a crystallisation event above 80% RH
  change in form / XRPD pattern post GVS analysis: transformation to Form 1
[1]; between 80% and 90% RH
  GVS weight loss accompanying crystallization: 7%
[1]; range of 40-80% RH
  moisture adsorbed (GVS): 9 % w/w

## Cn1cc(-c2nc(N[C@@H]3CCCC[C@@H]3N)c(F)c3c2C(=O)NC3)cn1 [Form 12]
[1]
  GVS behaviour (dehydration, crystallisation, transformation): Hysterisis was observed between 40 and 60% RH; also recorded: possibility of the transformation of Form 12 to a hydrated form
  GVS mass / total weight change: about 6%
[2]; 25° C./97% RH
  stability on storage: not stable
[2]; 40° C./75% RH
  stability on storage: No obvious stability issues were noted
[6]; water, pH 9.41, pH 9.41, read-out: aqueous solubility
  solubility: 580 µg/mL (≈ 1680 µM)

## Cn1cc(-c2nc(N[C@@H]3CCCC[C@@H]3N)c(F)c3c2C(=O)NC3)cn1 [Form 4]
[1]
  hygroscopicity by GVS: not hygroscopic; also recorded: non-hygroscopic
[2]; 25° C./97% RH for 10 days
  change in form during storage: did not change form
[2]; 40° C./75% RH for 10 days
  change in form during storage: did not change form
[2]; 40° C./97% RH for 10 days
  change in form during storage: did not change form
[2]
  stability to moisture / humidity: stable to moisture

## Cn1cc(-c2nc(N[C@@H]3CCCC[C@@H]3N)c(F)c3c2C(=O)NC3)cn1 [Compound 1 citrate, 6-(((1R,2S)-2-aminocyclohexyl)amino)-7-fluoro-4-(1-methyl-1H-pyrazol-4-yl)-1H-pyrrolo[3,4-c]pyridin-3(2H)-one citrate]
[1]; citrate
  hygroscopicity by GVS: non hygroscopic

## Cn1cc(-c2nc(N[C@@H]3CCCC[C@@H]3N)c(F)c3c2C(=O)NC3)cn1 [Form 6]
[1]
  GVS behaviour (dehydration, crystallisation, transformation): adsorbs moisture and undergoes a crystallisation event above 70% RH
[1]; between 40-60% RH
  GVS water uptake: 5 % w/w
[1]; between 70-90% RH
  GVS weight loss: 3%
[2]
  stability to moisture / humidity: seems to undergo a phase transformation, possibly leading to Form 9

Reference: patent publication US10676473B2, “Solid state forms of fused heteroaromatic pyrrolidinones” (TAKEDA PHARMACEUTICAL COMPANY LIMITED, priority 2014, dated 2020)
